Measured values reported in patent US8536207B2, “Method for treating a keratoconjunctival disorder” (Santen Pharmaceutical Co., Ltd., priority 2005, dated 2013).

Tests used:
[1] = system: corneal damage in rats in which the exorbital lacrimal gland was removed; assay: Test for therapeutic effect on corneal damage using rats in which the exorbital lacrimal gland was removed; type: in vivo, male SD rats; conditions: for Improvement ratio (%) of corneal damage: fluorescein staining score vs saline control
Experimental: 1. Test for Therapeutic Effect on Corneal Damage Using Rats in which the Exorbital Lacrimal Gland was Removed
Using male SD rats, corneal disorder models were produced in accordance with the method of Fujihara et al. (Invest. Ophthalmol. Vis. Sci. 42 (1): 96-100 (2001)). After the production of the corneal disorder models, the improvement ratio of corneal damage was evaluated by a method (Journal of the eye 21 (1): 87-90 (2004)) modified from the method of Miyata et al. (Japanese Review of Clinical Ophthalmology 48 (2): 183-188 (1994)).
Male SD rats were systemically anesthetized by an administration of Nembutal. Subsequently, the exorbital lacrimal gland of each rat was removed and a corneal damage was induced over a period of 2 months.
A physiological saline solution containing ebselen (25 μM) was instilled into both eyes 6 times a day for 14 days (one group consisting of 8 animals).
A physiological saline solution containing edaravone (200 μM) was instilled into both eyes 6 times a day for 14 days (one group consisting of 8 animals).
A physiological saline solution containing α-lipoic acid (200 μM) was instilled into both eyes 6 times a day for 14 days (one group consisting of 8 animals).
In a control group, physiological saline was instilled into both eyes 6 times a day for 14 days (one group consisting of 8 animals)
Fourteen days after the start of instillation, the damaged parts of the cornea were stained with fluorescein. For each of the upper, middle and lower parts of the cornea, the degree of fluorescein staining was evaluated by scoring according to the criteria shown below and the improvement ratio of corneal damage was calculated from the mean value of the total scores for each of the above-mentioned parts.
1: Scattered staining (punctate staining being separated)
2: Moderate staining (a part of punctate staining being adjacent)
3: Heavy staining (punctate staining being barely separated)
Incidentally, intermediate values (at intervals of 0.5) were set between the respective scores.
By taking the mean value of the scores for the control group (physiological saline) as a standard (improvement ratio: 0%) and according to the calculation equation shown below, the improvement ratios for the ebselen (25 μM) administration group and the edaravone (200 μM) administration group and α-lipoic acid (200 μM) administration group were calculated, respectively, which are shown in Table 1. Incidentally, the mean value of the scores is a mean of those of 8 cases in each group. Improvement ratio (%)={(control)−(administered compound)}/damage degree×100 Damage degree=(control)−(normal eye)

[2] = system: corneal damage in senescence-accelerated mouse model P10 (SAMP10); assay: Pharmacological test using SAMP10 (corneal damage, fluorescein staining); type: in vivo; conditions: for Score of fluorescein staining: mean±standard error, maximum 9 points
Experimental: 2. Pharmacological Test Using SAMP10
Using senescence-accelerated mouse model P10 (hereinafter referred to as SAMP10), an effect of ebselen on a corneal damage was evaluated in accordance with the method of Hirai, Shibagaki et al. (JP-A-2006-104913). Incidentally, as a control animal, SAMR1 with normal senescence was used.
SAMP10 develops a corneal disorder with aging. Accordingly, a corneal damage of female SAMP10 at 16 weeks of age (before a change caused by aging is observed) was evaluated, and then, administration of an ebselen solution or its vehicle was started. At 8 weeks after the start of administration (at 24 weeks of age), the same evaluation was carried out again. In the same manner, a corneal damage of female SAMR1 at 16 weeks of age was evaluated, and thereafter, administration of the above-mentioned vehicle was started. Then, at 8 weeks after the start of administration (at 24 weeks of age), the same evaluation was carried out again.
Ebselen suspensions obtained by suspending it in a 1% (w/v) methyl cellulose aqueous solution (prepared by dissolving methyl cellulose in ultrapure water) at a concentration of 0.45 mg/mL and 4.5 mg/mL respectively were orally administered to female SAMP10 once a day at a dose of 6.67 μL per g of body weight of mouse. The both administration groups were determined to be a 3 mg/kg group and a 30 mg/kg group, respectively. The administration was carried out 5 days a week (Mon, Tue, Wed, Thu, Fri) over a period of 8 weeks. As a control, a 1% (w/v) methyl cellulose aqueous solution was orally administered to SAMP10 in the same manner at a dose of 6.67 μL per g of body weight of mouse. Further, to the control animal, female SAMR1, a 1% (w/v) methyl cellulose aqueous solution was orally administered in the same manner. Incidentally, the number of animals in each group of SAMP10 is 22 eyes (11 mice), and the number of SAMR1 is 16 eyes (8 mice).
The damaged parts of the cornea of SAMP10 and SAMR1 were stained with fluorescein immediately before and at 8 weeks after the start of administration. For each of the upper, middle and lower parts of the cornea, the degree of fluorescein staining was evaluated by scoring according to the evaluation criteria described in “1. Test for therapeutic effect on corneal damage using rat models in which the exorbital lacrimal gland was removed”, and the scoring of the degree of corneal damage (a maximum score of 9 points) was carried out by obtaining the total scores for each of the above-mentioned parts.
Incidentally, the scores in the table are expressed as mean±standard error in each group.

[3] = 200 μM in physiological saline instilled into both eyes 6 times a day for 14 days

Row | Compound | Improvement ratio (%) of corneal damage [1, 3] [%] | Improvement ratio (%) of corneal damage ([1]; 25 μM in physiological saline instilled into both eyes 6 times a day for 14 days) [%] | Improvement ratio compared with edaravone and α-lipoic acid ([1]; ebselen 25 μM vs comparators 200 μM, instillation for 14 days) | Staining score compared with the vehicle administration group of SAMP10 ([2]; 3 mg/kg and 30 mg/kg groups, 24 weeks of age, Dunnett's test p < 0.05) | Score of fluorescein staining ([2]; SAMP10, 3 mg/kg group, 16 weeks of age (immediately before start of administration)) | Score of fluorescein staining ([2]; SAMP10, 3 mg/kg oral once a day, 5 days a week for 8 weeks, 24 weeks of age) | Score of fluorescein staining ([2]; SAMP10, 30 mg/kg group, 16 weeks of age (immediately before start of administration)) | Score of fluorescein staining ([2]; SAMP10, 30 mg/kg oral once a day, 5 days a week for 8 weeks, 24 weeks of age)
1 | O=C(O)CCCCC1CCSS1 (stereo in doubt) [α-Lipoic acid, (3R)-1,2-dithiolane-3-pentanoic acid] | 30.8 | – | – | – | – | – | – | –
2 | O=c1c2ccccc2[se]n1-c1ccccc1 [Ebselen, 2-phenyl-1,2-benzisoselenazol-3(2H)-one] | – | 76.5 | more than twice as high | significantly decreased | 2.61 ± 0.38 | 2.95 ± 0.45 | 2.45 ± 0.30 | 2.68 ± 0.33
3 | CC1=NN(c2ccccc2)C(=O)C1 [Edaravone, 3-methyl-1-phenyl-2-pyrazolin-5-one] | 36.9 | – | – | – | – | – | – | –
